Entries after “also recorded” stand apart in the source; their conditions may differ.
Legend:
[1] = system: CD40-induced NF-κB reporter gene activity; assay: NF-κB reporter in HEK293-NF-κB-luc cells over-expressing CD40; format: cell-based; conditions: CID-2858522 4 μM, IKK inhibitor 10 μM, PKC inhibitor 1 μM
Description: FIGS. 3 (A-F) HEK293-NF-κB-luc cells were pretreated with CID-2858522 (4 μM), IKK inhibitor, BMS-335541 (10 μM), or PKC inhibitor, Bisindolylmaleimide I (1 μM) for 2 hrs and then transfected with plasmids encoding CD4/TLR4 (A), CD40 (B), NOD1 (C), NOD2 (D), cIAP2-MALT1 (E), or XIAP and TAB (F), or pcDNA as control (compounds were not removed). After 48 hrs, luciferase activity was measured expressing data as fold increase relative to unstimulated cells (mean±SD; n=3). (G-H) HEK293-NF-κB-luc cells were pretreated with CID-2858522 (4 μM), or IKK inhibitor, BMS-335541 (10 μM) for 2 hrs and then cultured with 2 μM doxorubicin (G) or 16 μM retinoic acid (H). After 48 hrs, luciferase activity was measured as above.
Counter Screening and Secondary Assays. To counter-screen for inhibitors of the TNF pathway, HEK293-NFκB-Luc cells were seeded at 10^5 cells per well in 90 μL medium in white 96-well plates (Greiner Bio-One) and cultured overnight, before adding compounds (5 μL in medium) to cells. After 2 h incubation, 5 μL TNF (200 ng/mL) (R&D Systems) was added (final concentration 10 ng/mL) and cells were incubated for 16 h. Luciferase activity was measured using Britelite kit (Perkin Elmer). To counter-screen for inhibitors of NF-κB induced by TLR4, CD40, NOD1, NOD2, cIAP2/MALT, or XIAP/TAB, the 293-NF-κB-luc cells cultured in 96 well plates as above were pretreated with compounds for 2 h and then transfected using Lipofectamine 2000 with various plasmids including pcDNA3 (“empty vector” control) or plasmids encoding CD4-TLR4, CD40, NOD1, NOD2, cIAP2/MALT, XIAP/TAB, using 0.2 μL of transfection reagent containing 100 ng DNA per well. Cells were cultured in medium containing CID-2858522 or other compounds and luciferase activity was measured 48 h later. […] Reactions were then initiated by addition of 50 μL 160 nM ATP (Sigma) in PBS and luciferase activity was measured 2 h later using a luminometer (LJL Biosystems, Sunnyvale, Calif.).

[2] = system: anti-CD3/CD28-induced IL-2 production; assay: IL-2 production by anti-CD3/CD28-stimulated Jurkat T cells (ELISA); format: cell-based, human; conditions: for suppression of IL-2 production: anti-CD3/CD28 Jurkat, IKK inhibitor ≦10 μM, PKC inhibitor <0.5 μM
Description: FIG. 4A: Jurkat T cells were treated by anti-cd3/anti-cd28/anti-mouse IgG (6 μg/mL) or PMA/Ion (10 ng/mL) for 24 h, IL-2 production in medium was measured by ELISA kit. FIG. 4B-E: Jurkat T cells were pretreated by IKK inhibitor (B), PKC inhibitor (C), CID-2858522 (D) for 2 h and then treated by anti-cd3/anti-cd28/anti-mouse IgG (6 μg/mL) or PMA/Ion (10 ng/mL) for 24 h, IL-2 production in medium was measured by ELISA kit; E, Jurkat cells were treated by CID-2858522, PKC inhibitor and IKK inhibitor for 24 h, cell viability was measured by ATPlite kit.
In T cells, the antigen receptor stimulates several signal transduction pathways that converge on the IL-2 gene promoter, including NF-κB, NF-AT, and AP-1. For evaluating the effects of CID-2858522 on TCR-initiated, NF-κB-driven events in lymphocytes, we employed Jurkat T-leukemia cells, which have been utilized extensively as model for studying TCR-signaling leading to IL-2 gene expression. For these experiments, Jurkat cells were stimulated with either anti-CD3 (to activate the TCR complex) and anti-CD28 (co-stimulator) or with PMA/Ionomycin, in the presence or absence of CID-2858522, IKK inhibitor, or PKC inhibitor, then IL-2 production was measured 24 hrs later in culture supernatants. […] In contrast, CID-2858522 suppressed IL-2 production by CD3/CD28- and PMA/Ionomycin-stimulated Jurkat cells by approximately half (IC50) at concentrations <10 μM (FIG. 4D).
Lymphokine measurements. Human IL-2 or IL-8 levels in culture medium were measured by Enzyme-Linked Immunosorbent Assays (ELISAs), using BD OptEIA ELISAs (BD Biosciences, San Diego, Calif.), according to the manufacturer's protocol, using 96-well ELISA plates (BD Biosciences) and measuring absorbance within 30 minutes of initiating reactions using a SpectraMax 190 spectrophotometer (Molecular Devices).

With `Cc1cc2nc(NCCCO)n(CC(=O)c3cc(C(C)(C)C)c(O)c(C(C)(C)C)c3)c2cc1C` [Compound 1, 2-(2-(3-Hydroxypropylamino)-5,6-dimethyl-1H-benzo[d]imidazol-1-yl)-1-(3,5-di-tert-butyl-4-hydroxyphenyl)ethanone] the “suppression of CD40-induced NF-κB reporter” value [1] was “did not inhibit; also recorded: not by CID-2858522” and the IC50 ([2]; Homo sapiens, CD3/CD28-stimulated Jurkat cells, 24 h, read-out: IC50, suppression of IL-2 production (by approximately half)) was less than 10 µM.
In the case of `Cc1ccc2nc(NCCN)c3ncc(C)n3c2c1` [BMS-345541, reference compound], the “suppression of CD40-induced NF-κB reporter” value [1] is reported as “potently suppressed” and the “suppression of IL-2 production” value [2] is reported as 90%.
`CN(C)CCCn1cc(C2=C(c3c[nH]c4ccccc34)C(=O)NC2=O)c2ccccc21` [Bisindolylmaleimide I, reference compound] was tested, and the “suppression of CD40-induced NF-κB reporter” value [1] was “not by CID-2858522 or by the PKC inhibitor” and the “suppression of IL-2 production” value [2] was 80-90%.
